Converted amounts (≈) assume the structure as drawn. The source made the active and inactive calls. The rule behind the calls is not given here.
Key:
[1] = test system: Klebsiella pneumoniae; assay: Antibacterial activity against Klebsiella pneumoniae ATCC700603 assessed as inhibition of bacterial growth by broth microdilution method; type: functional
[2] = Selectivity ratio of IC50 for human THP-1 cells to MIC for Clostridium difficile ATCC 43255; type: toxicity
[3] = test system: Bacillus licheniformis; assay: Antibacterial activity against Bacillus licheniformis ATCC 12759 assessed as inhibition of bacterial growth by broth microdilution method; type: functional
[4] = test system: Escherichia coli; assay: Antibacterial activity against Escherichia coli ATCC25922 assessed as inhibition of bacterial growth by broth microdilution method; type: functional
[5] = test system: Enterococcus faecalis; assay: Antibacterial activity against vancomycin susceptible Enterococcus faecalis 201 assessed as inhibition of bacterial growth by broth microdilution method; type: functional
[6] = test system: Clostridioides difficile; assay: Antibacterial activity against Clostridium difficile NR49292 assessed as inhibition of bacterial growth by broth microdilution method; type: functional
[7] = test system: Enterococcus faecium; assay: Antibacterial activity against vancomycin resistant Enterococcus faecium 106 assessed as inhibition of bacterial growth by broth microdilution method; type: functional
[8] = test system: Clostridioides difficile; assay: Antibacterial activity against Clostridium difficile 26675 assessed as inhibition of bacterial growth by broth microdilution method; type: functional
[9] = test system: Clostridioides difficile; assay: Antibacterial activity against Clostridium difficile NR49302 assessed as inhibition of bacterial growth by broth microdilution method; type: functional
[10] = test system: Veillonella; assay: Antibacterial activity against Veillonella HM-49 assessed as inhibition of bacterial growth by broth microdilution method; type: functional
[11] = test system: Klebsiella aerogenes; assay: Antibacterial activity against Klebsiella aerogenes ATCC35029 assessed as inhibition of bacterial growth by broth microdilution method; type: functional
[12] = test system: Enterococcus faecium; assay: Antibacterial activity against vancomycin susceptible Enterococcus faecium119-39A assessed as inhibition of bacterial growth by broth microdilution method; type: functional; conditions: 119-39A
[13] = test system: Streptococcus pyogenes; assay: Antibacterial activity against Streptococcus pyogenes ATCC 49399 assessed as inhibition of bacterial growth by broth microdilution method; type: functional
[14] = test system: Staphylococcus aureus; assay: Antibacterial activity against Staphylococcus aureus NRS100 assessed as inhibition of bacterial growth by broth microdilution method; type: functional
[15] = test system: Clostridioides difficile; assay: Antibacterial activity against Clostridium difficile BAA-1803 assessed as inhibition of bacterial growth by broth microdilution method; type: functional
[16] = test system: Clostridioides difficile; assay: Antibacterial activity against Clostridium difficile ATCC 43255 assessed as inhibition of bacterial growth by broth microdilution method; type: functional
[17] = test system: Staphylococcus epidermidis; assay: Antibacterial activity against Staphylococcus epidermidis ATCC 35547 assessed as inhibition of bacterial growth by broth microdilution method; type: functional
[18] = test system: Bifidobacterium longum; assay: Antibacterial activity against Bifidobacterium longum HM-846 assessed as inhibition of bacterial growth by broth microdilution method; type: functional
[19] = test system: Staphylococcus aureus; assay: Antibacterial activity against Staphylococcus aureus NRS120 assessed as inhibition of bacterial growth by broth microdilution method; type: functional
[20] = test system: Staphylococcus haemolyticus; assay: Antibacterial activity against Staphylococcus haemolyticus ATCC 29970 assessed as inhibition of bacterial growth by broth microdilution method; type: functional
[21] = test system: Clostridioides difficile; assay: Antibacterial activity against Clostridium difficile NR49294 assessed as inhibition of bacterial growth by broth microdilution method; type: functional
[22] = test system: Enterococcus faecalis; assay: Antibacterial activity against vancomycin resistant Enterococcus faecalis 99 assessed as inhibition of bacterial growth by broth microdilution method; type: functional
[23] = test system: Clostridioides difficile; assay: Antibacterial activity against Clostridium difficile 24531 assessed as inhibition of bacterial growth by broth microdilution method; type: functional
[24] = test system: Bacteroides fragilis; assay: Antibacterial activity against Bacteroides fragilis HM-709 assessed as inhibition of bacterial growth by broth microdilution method; type: functional
[25] = test system: Staphylococcus aureus; assay: Antibacterial activity against Staphylococcus aureus NRS119 assessed as inhibition of bacterial growth by broth microdilution method; type: functional
[26] = test system: Staphylococcus aureus; assay: Antibacterial activity against vancomycin-resistant Staphylococcus aureus clinical isolate 1 assessed as inhibition of bacterial growth by broth microdilution method; type: functional
[27] = test system: Staphylococcus aureus; assay: Antibacterial activity against Staphylococcus aureus ATCC 27660 assessed as inhibition of bacterial growth by broth microdilution method; type: functional
[28] = test system: THP-1; assay: Cytotoxicity against human THP-1 cells assessed as increase in LDH release incubate for 24 hrs by trypan-blue staining based analysis; type: functional, cell-based; conditions: THP-1, 24 h
[29] = test system: Enterococcus faecium; assay: Antibacterial activity against Enterococcus faecium NCTC 7171 assessed as inhibition of bacterial growth by broth microdilution method; type: functional
[30] = test system: Enterococcus faecalis; assay: Antibacterial activity against Enterococcus faecalis ATCC 29212 assessed as inhibition of bacterial growth by broth microdilution method; type: functional
[31] = test system: Lactobacillus gasseri; assay: Antibacterial activity against Lactobacillus gasseri HM-644 assessed as inhibition of bacterial growth by broth microdilution method; type: functional
[32] = test system: Staphylococcus aureus; assay: Antibacterial activity against vancomycin-resistant Staphylococcus aureus clinical isolate 2 assessed as inhibition of bacterial growth by broth microdilution method; type: functional
[33] = test system: Acinetobacter baumannii; assay: Antibacterial activity against Acinetobacter baumannii ATCC17961 assessed as inhibition of bacterial growth by broth microdilution method; type: functional
[34] = test system: Clostridioides difficile; assay: Antibacterial activity against Clostridium difficile BAA-1870 assessed as inhibition of bacterial growth by broth microdilution method; type: functional
[35] = test system: Corynebacterium sp.; assay: Antibacterial activity against Corynebacterium sp. HM-784 assessed as inhibition of bacterial growth by broth microdilution method; type: functional
[36] = test system: Streptococcus oralis; assay: Antibacterial activity against Streptococcus oralis ATCC 9811 assessed as inhibition of bacterial growth by broth microdilution method; type: functional
[37] = test system: Limosilactobacillus reuteri; assay: Antibacterial activity against Lactobacillus reuteri HM-102 assessed as inhibition of bacterial growth by broth microdilution method; type: functional
[38] = test system: Staphylococcus aureus; assay: Antibacterial activity against Staphylococcus aureus ATCC 29213 assessed as inhibition of bacterial growth by broth microdilution method; type: functional
[39] = test system: Clostridioides difficile; assay: Antibacterial activity against Clostridium difficile NR49318 assessed as inhibition of bacterial growth by broth microdilution method; type: functional
[40] = test system: Bacillus cereus; assay: Antibacterial activity against Bacillus cereus ATCC 13061 assessed as inhibition of bacterial growth by broth microdilution method; type: functional
[41] = test system: Fusobacterium nucleatum; assay: Antibacterial activity against Fusobacterium nucleatum HM-992 assessed as inhibition of bacterial growth by broth microdilution method; type: functional
[42] = test system: Clostridioides difficile; assay: Antibacterial activity against Clostridium difficile NR49305 assessed as inhibition of bacterial growth by broth microdilution method; type: functional
[43] = test system: Eubacterium sp.; assay: Antibacterial activity against Eubacterium sp. HM-178 assessed as inhibition of bacterial growth by broth microdilution method; type: functional
[44] = test system: Pseudomonas aeruginosa; assay: Antibacterial activity against Pseudomonas aeruginosa ATCC27853 assessed as inhibition of bacterial growth by broth microdilution method; type: functional
[45] = test system: Clostridioides difficile; assay: Antibacterial activity against Clostridium difficile NR49310 assessed as inhibition of bacterial growth by broth microdilution method; type: functional
[46] = test system: Clostridioides difficile; assay: Antibacterial activity against Clostridium difficile ATCC 43255 assessed as damage in cell wall at 8 time MIC incubated for 24 hrs by scanning electron microscopy based analysis; type: functional, organism-based
[47] = test system: Clostridioides difficile; assay: Antibacterial activity against Clostridium difficile ATCC 43255 assessed as as time duration of post-antibiotic effect for suppression of bacterial growth at 4 times MIC incubated for 1 hr in broth solution; type: functional

For `FC(F)(F)c1ccc(Oc2ccc(-c3noc(-c4ccc5[nH]ccc5c4)n3)cc2)cc1`, the MIC [1] was > 128 µg/mL, the selectivity ratio [2] was 17 and the MIC [3] was 8 µg/mL (≈ 19 µM). The MIC [4] was > 128 µg/mL, the MIC [5] was 4 µg/mL (≈ 9.49 µM) and the MIC [6] was 2 µg/mL (≈ 4.75 µM). For the same compound, the MIC [7] was 2 µg/mL (≈ 4.75 µM), the MIC [8] was 4 µg/mL (≈ 9.49 µM) and the MIC [9] was 2 µg/mL (≈ 4.75 µM). For the same compound, the MIC [10] was > 128 µg/mL, the MIC [11] was > 128 µg/mL and the MIC [12] was 1 µg/mL (≈ 2.37 µM). It also gave an MIC [13] of 64 µg/mL (≈ 152 µM), an MIC [14] of 2 µg/mL (≈ 4.75 µM) and an MIC [15] of 2 µg/mL (≈ 4.75 µM). It also gave an MIC [16] of 2 µg/mL (≈ 4.75 µM), an MIC [17] of 2 µg/mL (≈ 4.75 µM) and an MIC [18] of 0.25 µg/mL (≈ 0.593 µM). For the same compound, the MIC [19] was 2 µg/mL (≈ 4.75 µM), the MIC [20] was 8 µg/mL (≈ 19 µM) and the MIC [21] was 1 µg/mL (≈ 2.37 µM). For the same compound, the MIC [22] was 4 µg/mL (≈ 9.49 µM), the MIC [23] was 4 µg/mL (≈ 9.49 µM) and the MIC [24] was 4 µg/mL (≈ 9.49 µM). For the same compound, the MIC [25] was 2 µg/mL (≈ 4.75 µM), the MIC [26] was 2 µg/mL (≈ 4.75 µM) and the MIC [27] was 4 µg/mL (≈ 9.49 µM). For the same compound, the IC50 [28] was 69 µg/mL (≈ 164 µM), the MIC [29] was 2 µg/mL (≈ 4.75 µM) and the MIC [30] was 8 µg/mL (≈ 19 µM). The MIC [31] was > 128 µg/mL, the MIC [32] was 2 µg/mL (≈ 4.75 µM) and the MIC [33] was > 128 µg/mL. It also gave an MIC [34] of 4 µg/mL (≈ 9.49 µM), an MIC [35] of 2 µg/mL (≈ 4.75 µM) and an MIC [36] of 128 µg/mL (≈ 304 µM). The MIC [37] was > 128 µg/mL, the MIC [38] was 4 µg/mL (≈ 9.49 µM) and the MIC [39] was 2 µg/mL (≈ 4.75 µM). The MIC [40] was 16 µg/mL (≈ 38 µM), the MIC [41] was 1 µg/mL (≈ 2.37 µM) and the MIC [42] was 4 µg/mL (≈ 9.49 µM). The MIC [43] was 2 µg/mL (≈ 4.75 µM), the MIC [44] was > 128 µg/mL and the MIC [45] was 2 µg/mL (≈ 4.75 µM).
In the case of `CN[C@H](CC(C)C)C(=O)N[C@H]1C(=O)N[C@@H](CC(N)=O)C(=O)N[C@H]2C(=O)N[C@H]3C(=O)N[C@H](C(=O)N[C@H](C(=O)O)c4cc(O)cc(O)c4-c4cc3ccc4O)[C@H](O)c3ccc(c(Cl)c3)Oc3cc2cc(c3O[C@@H]2O[C@H](CO)[C@@H](O)[C@H](O)[C@H]2O[C@H]2C[C@](C)(N)[C@H](O)[C@H](C)O2)Oc2ccc(cc2Cl)[C@H]1O` [VANCOMYCIN], the MIC [6] is reported as 0.25 µg/mL (≈ 0.173 µM), the MIC [15] is reported as 2 µg/mL (≈ 1.38 µM) and the Activity [46] is reported as “Active”. The Time [47] was 3 h, the MIC [18] was 0.25 µg/mL (≈ 0.173 µM) and the MIC [21] was 0.25 µg/mL (≈ 0.173 µM). For the same compound, the MIC [24] was 16 µg/mL (≈ 11 µM), the MIC [26] was 64 µg/mL (≈ 44.2 µM) and the MIC [39] was 0.25 µg/mL (≈ 0.173 µM). The MIC [41] was 0.25 µg/mL (≈ 0.173 µM).
